Holding throughout (test): cell-based
One assay has as its target hNav1.5 (Homo sapiens, UniProt Q14524). The conditions noted are these: IonWorks Quattro, hNav1.5, read-out: IWQ Use Nav1.5. A general note: In patch-clamp work, channel activity is measured electrically.
The target of the next assay is hNav1.3 (Homo sapiens, UniProt Q9NY46). The conditions noted are these: IonWorks Quattro, hNav1.3, read-out: IWQ Use Nav1.3.
For a further assay, the target named is hNav1.7 (Homo sapiens, UniProt Q15858). The format is cell-based. The conditions noted are these: IonWorks Quattro, hNav1.7, read-out: IWQ Use Nav1.7.

Where two headings read alike, the source gives them in different places. Positions of bridges follow the written chain, without caps; N, C: chain ends. Residues, ends and D or L forms follow the SMILES beside them.

hNav1.3, sequence (Q9NY46 whole entry, looked up): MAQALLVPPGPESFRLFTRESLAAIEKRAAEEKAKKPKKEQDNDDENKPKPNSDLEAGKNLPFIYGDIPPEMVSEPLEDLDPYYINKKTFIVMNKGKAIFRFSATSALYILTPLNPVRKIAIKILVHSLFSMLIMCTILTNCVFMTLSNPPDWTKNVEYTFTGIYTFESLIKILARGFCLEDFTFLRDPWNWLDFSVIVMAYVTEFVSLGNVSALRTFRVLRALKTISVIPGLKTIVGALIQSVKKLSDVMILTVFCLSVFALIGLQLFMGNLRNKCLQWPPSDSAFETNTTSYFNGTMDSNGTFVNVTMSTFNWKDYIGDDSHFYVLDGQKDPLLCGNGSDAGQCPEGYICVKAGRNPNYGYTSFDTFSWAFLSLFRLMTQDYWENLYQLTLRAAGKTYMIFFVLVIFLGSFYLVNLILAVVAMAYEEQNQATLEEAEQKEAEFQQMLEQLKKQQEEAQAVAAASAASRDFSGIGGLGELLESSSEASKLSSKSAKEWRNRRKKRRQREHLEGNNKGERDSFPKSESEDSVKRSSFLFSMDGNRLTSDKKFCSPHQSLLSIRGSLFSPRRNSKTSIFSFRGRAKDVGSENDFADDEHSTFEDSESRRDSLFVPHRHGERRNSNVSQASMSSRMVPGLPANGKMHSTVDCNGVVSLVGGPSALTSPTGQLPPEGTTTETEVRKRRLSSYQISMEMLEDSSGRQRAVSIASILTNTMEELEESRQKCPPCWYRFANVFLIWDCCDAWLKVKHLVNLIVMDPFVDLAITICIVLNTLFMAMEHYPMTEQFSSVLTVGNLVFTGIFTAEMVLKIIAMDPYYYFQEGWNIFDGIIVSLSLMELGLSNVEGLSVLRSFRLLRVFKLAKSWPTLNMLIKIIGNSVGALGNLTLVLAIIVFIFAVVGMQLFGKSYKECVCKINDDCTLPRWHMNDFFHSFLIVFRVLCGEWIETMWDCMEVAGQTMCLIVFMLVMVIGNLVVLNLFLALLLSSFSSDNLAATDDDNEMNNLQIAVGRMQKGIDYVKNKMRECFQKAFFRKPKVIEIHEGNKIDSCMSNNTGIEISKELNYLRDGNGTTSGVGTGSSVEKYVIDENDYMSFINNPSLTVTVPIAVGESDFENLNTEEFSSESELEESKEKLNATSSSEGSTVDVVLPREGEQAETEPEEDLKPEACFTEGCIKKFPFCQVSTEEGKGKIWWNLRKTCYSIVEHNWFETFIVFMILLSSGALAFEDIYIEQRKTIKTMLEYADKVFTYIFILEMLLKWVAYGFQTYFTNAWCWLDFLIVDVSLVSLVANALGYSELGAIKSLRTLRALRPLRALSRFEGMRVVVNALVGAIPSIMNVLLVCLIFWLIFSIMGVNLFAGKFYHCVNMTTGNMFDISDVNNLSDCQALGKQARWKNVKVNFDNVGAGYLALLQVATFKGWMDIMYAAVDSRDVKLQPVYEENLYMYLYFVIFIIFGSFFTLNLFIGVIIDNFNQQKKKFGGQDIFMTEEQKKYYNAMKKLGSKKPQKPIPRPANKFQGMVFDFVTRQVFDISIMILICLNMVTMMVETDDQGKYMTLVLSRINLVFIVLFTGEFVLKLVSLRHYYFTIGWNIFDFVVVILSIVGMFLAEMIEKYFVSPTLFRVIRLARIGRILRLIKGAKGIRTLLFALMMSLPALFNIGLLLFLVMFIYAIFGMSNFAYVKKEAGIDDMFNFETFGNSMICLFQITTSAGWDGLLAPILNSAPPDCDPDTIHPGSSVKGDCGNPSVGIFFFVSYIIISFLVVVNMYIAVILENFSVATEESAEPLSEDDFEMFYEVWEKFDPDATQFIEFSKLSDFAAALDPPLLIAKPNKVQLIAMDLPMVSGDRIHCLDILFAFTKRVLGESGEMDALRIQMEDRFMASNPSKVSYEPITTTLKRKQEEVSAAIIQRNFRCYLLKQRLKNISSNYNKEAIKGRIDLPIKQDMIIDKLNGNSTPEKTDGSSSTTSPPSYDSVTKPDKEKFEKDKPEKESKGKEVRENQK
hNav1.5, sequence (Q14524 whole entry, looked up): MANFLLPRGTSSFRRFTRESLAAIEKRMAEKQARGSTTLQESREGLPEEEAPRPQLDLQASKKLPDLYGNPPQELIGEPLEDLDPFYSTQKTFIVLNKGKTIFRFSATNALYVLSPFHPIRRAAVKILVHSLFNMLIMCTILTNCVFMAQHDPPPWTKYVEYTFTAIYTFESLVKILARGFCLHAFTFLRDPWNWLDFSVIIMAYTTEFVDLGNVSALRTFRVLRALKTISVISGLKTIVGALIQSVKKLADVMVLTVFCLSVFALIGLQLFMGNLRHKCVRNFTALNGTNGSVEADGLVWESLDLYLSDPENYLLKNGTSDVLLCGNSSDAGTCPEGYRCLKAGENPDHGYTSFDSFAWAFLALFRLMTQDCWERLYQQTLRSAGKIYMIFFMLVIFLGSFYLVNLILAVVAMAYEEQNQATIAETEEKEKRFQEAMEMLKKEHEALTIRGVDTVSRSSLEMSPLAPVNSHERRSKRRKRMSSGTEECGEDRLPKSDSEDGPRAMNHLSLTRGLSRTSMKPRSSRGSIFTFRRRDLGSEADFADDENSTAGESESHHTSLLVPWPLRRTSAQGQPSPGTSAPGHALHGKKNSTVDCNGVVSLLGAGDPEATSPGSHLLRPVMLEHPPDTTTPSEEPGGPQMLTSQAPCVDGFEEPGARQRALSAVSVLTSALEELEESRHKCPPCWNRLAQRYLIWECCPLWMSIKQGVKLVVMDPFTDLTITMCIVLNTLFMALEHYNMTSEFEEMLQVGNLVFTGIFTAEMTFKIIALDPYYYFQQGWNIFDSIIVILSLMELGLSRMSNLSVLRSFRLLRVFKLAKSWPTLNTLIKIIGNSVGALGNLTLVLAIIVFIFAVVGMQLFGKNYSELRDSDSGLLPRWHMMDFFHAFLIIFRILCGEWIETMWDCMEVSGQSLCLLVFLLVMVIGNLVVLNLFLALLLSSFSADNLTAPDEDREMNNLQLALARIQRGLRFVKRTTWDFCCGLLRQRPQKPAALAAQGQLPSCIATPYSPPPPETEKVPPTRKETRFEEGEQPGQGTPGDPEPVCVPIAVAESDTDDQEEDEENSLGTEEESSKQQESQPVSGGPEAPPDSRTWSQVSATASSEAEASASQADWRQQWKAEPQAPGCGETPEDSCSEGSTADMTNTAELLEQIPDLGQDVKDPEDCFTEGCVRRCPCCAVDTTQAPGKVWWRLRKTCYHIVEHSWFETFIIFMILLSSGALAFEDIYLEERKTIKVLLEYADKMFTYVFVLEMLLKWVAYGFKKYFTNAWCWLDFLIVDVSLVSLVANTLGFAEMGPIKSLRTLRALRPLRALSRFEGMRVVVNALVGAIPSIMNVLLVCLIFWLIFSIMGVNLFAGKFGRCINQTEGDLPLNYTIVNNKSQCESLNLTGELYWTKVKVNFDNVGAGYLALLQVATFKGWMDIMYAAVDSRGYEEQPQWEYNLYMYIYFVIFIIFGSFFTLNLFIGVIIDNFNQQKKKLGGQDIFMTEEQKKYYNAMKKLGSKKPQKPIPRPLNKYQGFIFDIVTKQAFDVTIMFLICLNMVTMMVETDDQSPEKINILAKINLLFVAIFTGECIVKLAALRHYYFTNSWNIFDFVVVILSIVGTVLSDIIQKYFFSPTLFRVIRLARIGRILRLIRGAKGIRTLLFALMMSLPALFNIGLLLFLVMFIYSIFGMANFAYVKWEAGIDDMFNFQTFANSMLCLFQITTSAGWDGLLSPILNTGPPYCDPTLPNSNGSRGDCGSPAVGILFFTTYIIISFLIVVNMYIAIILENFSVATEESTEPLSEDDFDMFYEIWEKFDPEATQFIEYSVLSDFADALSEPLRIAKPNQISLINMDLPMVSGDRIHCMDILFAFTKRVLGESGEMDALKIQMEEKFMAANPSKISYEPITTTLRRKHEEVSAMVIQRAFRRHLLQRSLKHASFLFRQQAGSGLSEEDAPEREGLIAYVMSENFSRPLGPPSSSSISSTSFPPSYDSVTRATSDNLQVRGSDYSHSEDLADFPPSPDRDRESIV

On to `CC[C@H](C)[C@@H]1NC(=O)[C@@H]2CSSC[C@@H]3NC(=O)[C@H](C(C)C)NC(=O)[C@H](CC(C)C)NC(=O)[C@H](CC(N)=O)NC(=O)[C@@H]4CCCN4C(=O)[C@H](CCCNC(=N)N)NC(=O)[C@H](CSSC[C@H](NC(=O)[C@@H](N)CC(=O)O)C(=O)N[C@@H](CC(C)C)C(=O)NCC(=O)N[C@@H](C)C(=O)N[C@@H](CC(C)C)C(=O)N[C@@H](CCCNC(=N)N)C(=O)N[C@@H](CCCCN)C(=O)N2)NC(=O)[C@H](CSSC[C@@H](C(=O)N[C@@H](CCCCN)C(=O)N[C@@H](Cc2ccc(O)cc2)C(=O)N[C@H](C(=O)N[C@@H](Cc2ccccc2)C(=O)O)C(C)C)NC(=O)[C@H](Cc2c[nH]c4ccccc24)NC(=O)[C@H](CCCNC(=N)N)NC(=O)[C@H](Cc2c[nH]cn2)NC(=O)[C@H]([C@@H](C)O)NC(=O)[C@H](CCCNC(=N)N)NC(=O)[C@H](CO)NC3=O)NC(=O)[C@H](CCCCN)NC(=O)[C@H](CC(=O)O)NC(=O)[C@H](CCSC)NC(=O)[C@H](CC(=O)O)NC(=O)[C@@H]2CCCN2C1=O` [compound 868] (H-DCLGALRKCIPDMDKCCRPNLVCSRTHRWCKYVF-OH; disulfide 2-17, 9-23, 16-30), for which the IC50 on hNav1.5 (use-dependent block), on hNav1.3 (use-dependent block) and on hNav1.7 (use-dependent block) was greater than 5 µM each time.
As to `CC[C@H](C)[C@@H]1NC(=O)[C@@H]2CSSC[C@@H]3NC(=O)[C@H](C(C)C)NC(=O)[C@H](CC(C)C)NC(=O)[C@H](CC(N)=O)NC(=O)[C@@H]4CCCN4C(=O)[C@H](CCCNC(=N)N)NC(=O)[C@H](CSSC[C@H](NC(=O)[C@@H](N)CC(=O)O)C(=O)N[C@@H](CC(C)C)C(=O)NCC(=O)N[C@@H](C)C(=O)N[C@@H](CC(C)C)C(=O)N[C@@H](CCCNC(=N)N)C(=O)N[C@@H](CCCCN)C(=O)N2)NC(=O)[C@H](CSSC[C@@H](C(=O)N[C@@H](CCCCN)C(=O)N[C@@H](Cc2ccc(O)cc2)C(=O)N[C@H](C(=O)N[C@@H](Cc2ccccc2)C(=O)O)C(C)C)NC(=O)[C@H](Cc2c[nH]c4ccccc24)NC(=O)CNC(=O)[C@H](Cc2c[nH]cn2)NC(=O)[C@H]([C@@H](C)O)NC(=O)[C@H](CCCNC(=N)N)NC(=O)[C@H](CO)NC3=O)NC(=O)[C@H](CCCCN)NC(=O)[C@H](CC(=O)O)NC(=O)[C@H](CC(N)=O)NC(=O)[C@H](CC(=O)O)NC(=O)[C@@H]2CCCN2C1=O` [compound 598] (H-DCLGALRKCIPDNDKCCRPNLVCSRTHGWCKYVF-OH; disulfide 2-17, 9-23, 16-30), the IC50 was 12.6 µM on hNav1.5 (use-dependent block), 4 µM on hNav1.3 (use-dependent block) and greater than 5 µM on hNav1.7 (use-dependent block).
Regarding `CC[C@H](C)[C@@H]1NC(=O)[C@@H]2CSSC[C@@H]3NC(=O)[C@H](C(C)C)NC(=O)[C@H](CC(C)C)NC(=O)[C@H](CC(N)=O)NC(=O)[C@@H]4CCCN4C(=O)[C@H](CCCNC(=N)N)NC(=O)[C@H](CSSC[C@H](NC(=O)[C@@H](N)CC(=O)O)C(=O)N[C@@H](CC(C)C)C(=O)NCC(=O)N[C@@H](C(C)C)C(=O)N[C@@H](Cc4ccccc4)C(=O)N[C@@H](CCCNC(=N)N)C(=O)N[C@@H](CCCCN)C(=O)N2)NC(=O)[C@H](CSSC[C@@H](C(=O)N[C@@H](CCCCN)C(=O)N[C@@H](Cc2ccc(O)cc2)C(=O)N[C@H](C(=O)N[C@@H](Cc2ccccc2)C(N)=O)C(C)C)NC(=O)[C@H](Cc2c[nH]c4ccccc24)NC(=O)[C@H](CCCCN)NC(=O)[C@H](Cc2c[nH]cn2)NC(=O)[C@H]([C@@H](C)O)NC(=O)[C@H](CCCNC(=N)N)NC(=O)[C@H](CO)NC3=O)NC(=O)[C@H](CCCCN)NC(=O)[C@H](CC(=O)O)NC(=O)[C@H](CC(N)=O)NC(=O)[C@H](CC(=O)O)NC(=O)[C@@H]2CCCN2C1=O` [compound 618] (H-DCLGVFRKCIPDNDKCCRPNLVCSRTHKWCKYVF-NH2; disulfide 2-17, 9-23, 16-30), the IC50 amounted to 9.4 µM at hNav1.5 (use-dependent protocol), 0.099 µM on hNav1.3 (use-dependent protocol) and 0.12 µM on hNav1.7 (use-dependent protocol).
Regarding `CC[C@H](C)[C@@H]1NC(=O)[C@@H]2CSSC[C@@H]3NC(=O)[C@H](C(C)C)NC(=O)[C@H](CC(C)C)NC(=O)[C@H](CC(N)=O)NC(=O)[C@@H]4CCCN4C(=O)[C@H](CCCNC(=N)N)NC(=O)[C@H](CSSC[C@H](NC(=O)[C@@H](N)CC(=O)O)C(=O)N[C@@H](CC(C)C)C(=O)NCC(=O)N[C@@H](C)C(=O)N[C@@H](CC(C)C)C(=O)N[C@@H](CCCNC(=N)N)C(=O)N[C@@H](CCCCN)C(=O)N2)NC(=O)[C@H](CSSC[C@@H](C(=O)N[C@@H](CCCCN)C(=O)N[C@@H](Cc2ccc(O)cc2)C(=O)N[C@H](C(=O)N[C@@H](Cc2ccccc2)C(=O)O)C(C)C)NC(=O)[C@H](Cc2c[nH]c4ccccc24)NC(=O)[C@H](CCCNC(=N)N)NC(=O)[C@H](Cc2c[nH]cn2)NC(=O)[C@H]([C@@H](C)O)NC(=O)[C@H](CCCNC(=N)N)NC(=O)[C@H](CO)NC3=O)NC(=O)[C@H](CCCCN)NC(=O)[C@H](CC(=O)O)NC(=O)[C@H](Cc2ccc(O)cc2)NC(=O)[C@H](CC(=O)O)NC(=O)[C@@H]2CCCN2C1=O` [compound 873] (H-DCLGALRKCIPDYDKCCRPNLVCSRTHRWCKYVF-OH; disulfide 2-17, 9-23, 16-30), the IC50 at hNav1.5 (use-dependent block) is greater than 5 µM; at hNav1.3 (use-dependent block), greater than 5 µM; on hNav1.7 (use-dependent block), 4.8 µM.
On to `CC[C@H](C)[C@@H]1NC(=O)[C@@H]2CSSC[C@@H]3NC(=O)[C@H](C(C)C)NC(=O)[C@H](CC(C)C)NC(=O)[C@H](CC(N)=O)NC(=O)[C@@H]4CCCN4C(=O)[C@H](CCCNC(=N)N)NC(=O)[C@H](CSSC[C@H](NC(=O)[C@@H](N)CC(=O)O)C(=O)N[C@@H](CC(C)C)C(=O)N[C@@H](Cc4c[nH]c5ccccc45)C(=O)N[C@@H](C)C(=O)N[C@@H](CCSC)C(=O)N[C@@H](CCCNC(=N)N)C(=O)N[C@@H](CCCCN)C(=O)N2)NC(=O)[C@H](CSSC[C@@H](C(=O)N[C@@H](CCCCN)C(=O)N[C@@H](Cc2ccc(O)cc2)C(=O)N[C@H](C(=O)N[C@@H](Cc2ccccc2)C(N)=O)C(C)C)NC(=O)[C@H](Cc2c[nH]c4ccccc24)NC(=O)[C@H](CCCCN)NC(=O)[C@H](Cc2c[nH]cn2)NC(=O)[C@H]([C@@H](C)O)NC(=O)[C@H](CCCNC(=N)N)NC(=O)[C@H](CO)NC3=O)NC(=O)[C@H](CCCCN)NC(=O)[C@H](CC(=O)O)NC(=O)[C@H](CC(N)=O)NC(=O)[C@H](CC(=O)O)NC(=O)[C@@H]2CCCN2C1=O` [compound 424] (H-DCLWAMRKCIPDNDKCCRPNLVCSRTHKWCKYVF-NH2; disulfide 2-17, 9-23, 16-30), for which the IC50 on hNav1.5 (use-dependent block) was greater than 5 µM; on hNav1.3 (use-dependent block), 1.17 µM; at hNav1.7 (use-dependent block) it was 0.49 µM.
For `CC[C@H](C)[C@@H]1NC(=O)[C@@H]2CSSC[C@@H]3NC(=O)[C@H](C(C)C)NC(=O)[C@H](CC(C)C)NC(=O)[C@H](CC(N)=O)NC(=O)[C@@H]4CCCN4C(=O)[C@H](CCCNC(=N)N)NC(=O)[C@H](CSSC[C@H](NC(=O)[C@@H](N)CC(=O)O)C(=O)N[C@@H](CC(C)C)C(=O)NCC(=O)N[C@@H](C)C(=O)N[C@@H](CCSC)C(=O)N[C@@H](CCCNC(=N)N)C(=O)N[C@@H](CCCCN)C(=O)N2)NC(=O)[C@H](CSSC[C@@H](C(=O)N[C@@H](CCCCN)C(=O)N[C@@H](Cc2ccc(O)cc2)C(=O)N[C@H](C(=O)N[C@@H](Cc2ccccc2)C(=O)N[C@@H](CCC(=O)O)C(N)=O)C(C)C)NC(=O)[C@H](Cc2c[nH]c4ccccc24)NC(=O)[C@H](CCCCN)NC(=O)[C@H](Cc2c[nH]cn2)NC(=O)[C@H]([C@@H](C)O)NC(=O)[C@H](CCCNC(=N)N)NC(=O)[C@H](CO)NC3=O)NC(=O)[C@H](CCCCN)NC(=O)[C@H](CC(=O)O)NC(=O)[C@H](CC(N)=O)NC(=O)[C@H](CC(=O)O)NC(=O)[C@@H]2CCCN2C1=O` [compound 790] (H-DCLGAMRKCIPDNDKCCRPNLVCSRTHKWCKYVFE-NH2; disulfide 2-17, 9-23, 16-30), in that order: 28.5 µM, greater than 5 µM and greater than 5 µM.

Source of the values: patent publication US9340590B2 (priority 2011, dated 2016).
